Test results: patent EP2307018B1, “OXYMATRINE COMPOSITIONS AND USE THEREOF FOR TREATING AND PREVENTING CHRONIC INFECTIOUS DISEASES” (Chia, John K.S., priority 2008, dated 2010)

How the values were obtained:
hepatitis B = conditions: oral, after one year of treatment; comparable to interferon-α injection; cited from earlier work
enterovirus [1] = experiment: open-label, controlled oxymatrine clinical study in ME/CFS patients with enterovirus infection; assay type: in vivo, human
Description: An open-label, controlled study was conducted on patients who fulfilled the international criteria for myalgic encephalomyelitis (ME)/chronic fatigue syndrome (CFS) and had virological evidence of enterovirus infection.
One hundred patients took oxymatrine at dose of 200-300 mg twice a day with or without food for a minimum of three months. Patients who could not complete the course due to side effects or intolerance were considered as failures (intent-to-treat analysis). Of the first group, 52% (52/100) responded to oxymatrine, as compared to 6% (7/114) of the control groups (p <0.000001, X^2 test). Of the next 104 patients, 52% responded to treatment. […] Fifty-three percent (57/107) of patients with elevated […] (CVB) and echovirus (Ech) antibody responded to therapy and 50% (49/97) of patients with non-typeable EV infections improved (NS, X^2 test). Fifty-two percent (47/91) of patients with positive EV protein in stomach biopsies responded, whereas 56% (5/9) of patients with negative biopsies responded (NS, X^2 test).

[2] = test system: Coxsackie B virus (CBV) 3, CVB4 and echovirus 9; experiment: case report Example 2, treatment of chronic fatigue; assay type: in vivo, human
Description: A person with episodes of diarrhea while traveling to Tonga developed severe respiratory infection soon thereafter. The symptoms consisted of fevers to 105°F, night sweats, diffuse myalgia, tachycardia, fatigue, sinus congestion and cough, and unresponsiveness to antibiotics. The patient developed profound fatigue thereafter and went on total disability three months after the onset of symptoms. Initial Coxsackie B virus (CBV) 3, CVB4 and echovirus 9 antibody titers were 1:320, 1:160, 1:80 (normal <1:10), respectively.
The patient could not work for the next 18 months. They were started on oxymatrine at 300 mg twice a day (bid). After taking oxymatrine for two months, they were able to take short walks, but still exhausted after one hour of activity requiring five hour naps. At the end of three months of therapy, they started having fevers of 104-105°F for several days with marked decrease in diffuse myalgia. […] CVB3, CVB4 and echovirus antibody three months after therapy were 1:160, 1:160 and 1:20, respectively.

[3] = case report Example 11, treating diarrhea; assay type: in vivo, human; conditions: after starting 200 mg bid
Description: A person developed continuing watery diarrhea, as many as twenty episodes a day, and mild fatigue for three months. Laboratory studies and stool work-up were completely negative. […] They failed Asacol therapy.

coxsackievirus B = conditions: in vitro; mechanism not defined; cited from earlier work
[4] = test system: interleukin-12P35+P40/interleukin-10; experiment: cytokine gene expression in CFS patients at start of and during oxymatrine therapy (FIG. 5); assay type: in vivo, human
Description: • FIG. 1 graphically illustrates the comparison of Th1/Th2 (interleukin-12p35+P40/interleukin-4 + interleukin-10, RQ is the gene expression ratio) gene expression of patients who are functional (able to work) versus totally disability (not able to work). The difference therein is statistically significant (p<0.01, pair t test). • FIG. 2 illustrates the infected human stomach (biopsy of case 5 stained with 5D8/1) before treatment with oxymatrine. • FIG. 3 illustrates the stomach biopsy of case 5 stained with 5 D8/1 after taking oxymatrine for 6 months. • FIG. 4 graphically illustrates a cytokine gene expression study before and after oxymatrine (RQ is the gene expression ratio). • FIG. 5 graphically illustrates cytokine gene expression of interleukin-12P35+P40/interleukin-10 in tissue from CFS patients at the start of (pre-oxymatrine) and during oxymatrine therapy (n=17).

enterovirus [5] = experiment: case report Example 12, treating diarrhea; assay type: in vivo, human
Description: A person developed severe watery diarrhea for two months. Stool evaluation was unremarkable. […] They continued to do well for six months on the medication.

echoviruses = conditions: in vitro; mechanism not defined; cited from earlier work
enterovirus [6] = experiment: case report Example 10, acute enterovirus infection of the gastrointestinal tract; assay type: in vivo, human
Description: A person developed subacute onset of severe fatigue, nausea, anorexia and progressive weight loss of 20 pounds following an upper respiratory infection.

[7] = side effects in 176 patients having taken oxymatrine

In the case of `O=C1CCC[C@@H]2[C@H]3CCC[N+]4([O-])CCC[C@@H](CN12)[C@@H]34` (stereo partly drawn) [oxymatrine], the overall cure rate (hepatitis B) is given as “about 40%”, the “changes of other chemistry parameters and complete blood counts (CBC)” value (enterovirus [1]; compared to baseline values) is given as “no significant changes” and the “patients who relapsed responded to restart of oxymatrine” value (enterovirus [1]; eighty-seven percent) is given as 13/15. For the same compound, the “patients responded to oxymatrine” value (enterovirus [1]; first group (52/100), 200-300 mg twice a day, minimum three months, intent-to-treat, control groups 6% (7/114), p <0.000001) was 52%, the “patients reporting transient, moderate increase in pre-existing symptoms” value (enterovirus [1]; human, in vivo) was “more than 50%” and the “patients with elevated blood pressure that prompted discontinuation of therapy” value (enterovirus [1]; human, in vivo) was 2/204. The “serious complications during therapy” value (enterovirus [1]; human, in vivo) was “No serious complications”, the tolerability (enterovirus [1]; most of the patients, except for variable increase of pre-existing symptoms during the first 1-2 days of maximal doses) was “tolerated oxymatrine well” and the “patients responded to treatment” value (enterovirus [1]; next 104 patients) was 52%. The “patients responded to therapy” value (enterovirus [1]; patients with elevated chrysanthemum virus B (CVB) and echovirus (Ech) antibody, fifty-three percent) was 57/107, the patients responded (enterovirus [1]; patients with negative biopsies (5/9)) was 56% and the patients improved (enterovirus [1]; patients with non-typeable EV infections (49/97)) was 50%. The patients responded (enterovirus [1]; patients with positive EV protein in stomach biopsies, fifty-two percent) was 47/91, the “patients with transient increase in potassium” value (enterovirus [1]; returned to normal without specific treatment) was 2/204 and the “Diffuse rashes: % of total patients” value (enterovirus [1]; [7]) was less than 1%. For the same compound, the “Dry eyes and mouth: % of total patients” value (enterovirus [1]; [7]) was 1%, the “Fevers: % of total patients” value (enterovirus [1]; [7]) was 2% and the “Herpes simplex virus outbreak after discontinuation: % of total patients” value (enterovirus [1]; [7]) was 1%. The “Increase in blood pressure: % of total patients” value (enterovirus [1]; [7]) was 1%, the “Increase in edema: % of total patients” value (enterovirus [1]; [7]) was 1% and the “Increased abdominal pain: % of total patients” value (enterovirus [1]; [7]) was 6%. The “Increased bladder symptoms: % of total patients” value (enterovirus [1]; [7]) was 2%, the “Increased diarrhea: % of total patients” value (enterovirus [1]; [7]) was 4% and the “Increased dizziness: % of total patients” value (enterovirus [1]; [7]) was 2%. For the same compound, the “Increased fatigue: % of total patients” value (enterovirus [1]; [7]) was 4%, the “Increased headache: % of total patients” value (enterovirus [1]; [7]) was 8% and the “Increased insomnia: % of total patients” value (enterovirus [1]; [7]) was 1%. For the same compound, the “Increased myalgia: % of total patients” value (enterovirus [1]; [7]) was 30%, the “Increased nausea: % of total patients” value (enterovirus [1]; [7]) was 6% and the “Increased palpitation, chest pain: % of total patients” value (enterovirus [1]; [7]) was 3%. The “Increased polyarthralgia: % of total patients” value (enterovirus [1]; [7]) was 1%, the “Increased sinus congestion: % of total patients” value (enterovirus [1]; [7]) was 3% and the “Inflammation of skin lesion: % of total patients” value (enterovirus [1]; [7]) was 1%. For the same compound, the “New rashes: % of total patients” value (enterovirus [1]; [7]) was less than 1%, the “Seizure (petit mal): % of total patients” value (enterovirus [1]; [7]) was less than 1% and the “Weight gain: % of total patients” value (enterovirus [1]; [7]) was 1%. For the same compound, the “patients who stopped oxymatrine due to intolerable side effects” value (enterovirus [1]; within the first eight weeks, twenty patients) was 10%, the “patients relapsed after discontinuation of oxymatrine” value (enterovirus [1]; within two days to one month after discontinuation, fifty-nine percent) was 19/32 and the clinical outcome ([2]; 300 mg bid for three months, three months after finishing the medication, previously on total disability) was “went back to full-time work”. The fevers ([2]; at the end of three months of therapy, for several days, with marked decrease in diffuse myalgia) was 104-105 °F, the “laboratory studies including CBC and complete chemistry panel” value ([2]; during therapy, calcium resolved after stopping hydrochlorothiazide) was “normal except mildly elevated calcium levels” and the relapse after therapy ([2]; in vivo) was “had not relapsed for at least one year after therapy”. For the same compound, the diarrhea [3] was “resolved completely in a few days”, the “growth inhibition of coxsackievirus B in cell cultures” value (coxsackievirus B) was “growth inhibition” and the “increase of the interleukin-12P35+P40/interleukin-10 ratio (gene expression)” value ([4]; seven responders of n=17, pre-oxymatrine vs during therapy) was “greater than 2 fold”. For the same compound, the “interleukin-12P35+P40/interleukin-10 ratio (gene expression)” value ([4]; ten non-responders of n=17, pre-oxymatrine vs during therapy) was “remained the same or decreased”, the diarrhea (enterovirus [5]; after starting oxymatrine) was “resolved within one week” and the “effect of decrease of medication to half the dose” value (enterovirus [5]; resolved after increasing the dosage) was “relapse of the symptoms”. For the same compound, the “growth inhibition of echoviruses in cell cultures” value (echoviruses) was “growth inhibition”, the symptoms (enterovirus [6]; 200 mg bid) was “promptly responded” and the activity (enterovirus [6]; after taking oxymatrine for ten days) was “resumed their normal activity”.
